The test system of one data set is CCCC(=O)CC(=O)OCC. Nature of the data set: purified protein. The settings on record: pH 7.5; 25.0 °C.
A further data set has as its system CCCCCCC(C)=O. Nature of the data set: purified protein. The following applies: pH 7.5; 25.0 °C.
For another data set, the target named is EthA (Rv3854c) (Mycobacterium tuberculosis, UniProt P9WNF9). It is filed as biochemical.
Another data set has as its target Rv0565c (Mycobacterium tuberculosis, UniProt O53762).
The target in a further data set is Rv0892 (Mycobacterium tuberculosis, UniProt P9WNG1).
Chain of Rv0892 (P9WNG1 whole entry, looked up): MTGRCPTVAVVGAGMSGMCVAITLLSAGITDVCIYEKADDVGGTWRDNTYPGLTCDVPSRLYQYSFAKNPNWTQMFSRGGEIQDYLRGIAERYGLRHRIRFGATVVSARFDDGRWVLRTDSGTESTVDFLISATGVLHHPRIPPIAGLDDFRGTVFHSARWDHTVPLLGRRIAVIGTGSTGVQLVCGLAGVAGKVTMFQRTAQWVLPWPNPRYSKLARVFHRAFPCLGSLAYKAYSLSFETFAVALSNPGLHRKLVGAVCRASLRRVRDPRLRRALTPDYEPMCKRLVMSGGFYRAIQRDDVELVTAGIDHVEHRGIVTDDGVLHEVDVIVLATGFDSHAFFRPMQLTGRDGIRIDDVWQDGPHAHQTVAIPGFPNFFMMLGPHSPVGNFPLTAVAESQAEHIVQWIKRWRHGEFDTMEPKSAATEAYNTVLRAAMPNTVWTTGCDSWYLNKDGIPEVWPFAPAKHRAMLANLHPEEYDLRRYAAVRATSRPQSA

Chain of EthA (Rv3854c) (P9WNF9 whole entry, looked up): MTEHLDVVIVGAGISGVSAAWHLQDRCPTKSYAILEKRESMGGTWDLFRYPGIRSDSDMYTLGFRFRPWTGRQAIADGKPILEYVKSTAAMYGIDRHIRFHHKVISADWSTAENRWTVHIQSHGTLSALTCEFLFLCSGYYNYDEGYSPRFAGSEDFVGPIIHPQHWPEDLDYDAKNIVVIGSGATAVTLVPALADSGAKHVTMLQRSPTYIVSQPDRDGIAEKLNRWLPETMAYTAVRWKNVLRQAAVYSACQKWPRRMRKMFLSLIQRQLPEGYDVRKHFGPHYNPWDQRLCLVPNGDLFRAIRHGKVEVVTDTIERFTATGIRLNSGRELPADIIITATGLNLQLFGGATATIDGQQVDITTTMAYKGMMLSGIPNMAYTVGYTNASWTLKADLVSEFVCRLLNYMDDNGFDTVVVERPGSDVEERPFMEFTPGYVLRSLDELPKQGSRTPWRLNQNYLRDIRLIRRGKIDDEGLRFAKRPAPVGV
Chain of Rv0565c (O53762 entry or part of it): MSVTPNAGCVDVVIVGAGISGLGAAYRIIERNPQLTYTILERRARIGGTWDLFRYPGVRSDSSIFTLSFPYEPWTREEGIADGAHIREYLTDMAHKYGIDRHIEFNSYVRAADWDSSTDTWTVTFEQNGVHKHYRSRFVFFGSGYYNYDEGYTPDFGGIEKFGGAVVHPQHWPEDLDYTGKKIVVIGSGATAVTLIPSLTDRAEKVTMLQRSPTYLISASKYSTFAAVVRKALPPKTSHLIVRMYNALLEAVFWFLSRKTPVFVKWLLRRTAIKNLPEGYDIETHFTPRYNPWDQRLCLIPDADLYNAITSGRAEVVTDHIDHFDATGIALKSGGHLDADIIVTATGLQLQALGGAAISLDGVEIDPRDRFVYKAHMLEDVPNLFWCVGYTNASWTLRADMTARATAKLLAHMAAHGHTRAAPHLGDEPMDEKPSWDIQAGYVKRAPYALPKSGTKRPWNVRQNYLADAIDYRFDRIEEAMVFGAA

As to “MymA (Rv3083), MymAcoli (Mycobacterium tuberculosis H37Rv)”, the Km (commonly the concentration of substrate that gives half-maximal velocity) in the data set with CCCC(=O)CC(=O)OCC came to 240 ± 40 µM; with CCCCCCC(C)=O it was 400 ± 100 µM.

As to `CCCC(=O)CC(=O)OCC` [ethyl 3-oxohexanoate], the activity entry at EthA (Rv3854c) was “with 2-oct and Et3-ox being the most effective substrates”; at Rv0565c it was “with 2-oct and Et3-ox being the most effective substrates”. In addition, the specific activity entry at Rv0892 was “Rv0892 exhibits markedly low catalytic rates on the tested substrates”.

As for `CCCCCCC(C)=O` [2-octanone], the activity result at EthA (Rv3854c) is “Rv0565c and EthA are efficient in oxidizing 2-octanone”; at Rv0565c it was “Rv0565c and EthA are efficient in oxidizing 2-octanone”. The specific activity entry at Rv0892 is listed as “Rv0892 exhibits markedly low catalytic rates on the tested substrates”.

Source of the values: PMC9044951, “Bioinformatic Mining and Structure-Activity Profiling of Baeyer-Villiger Monooxygenases from Mycobacterium tuberculosis” (mSphere, 2022).
